Data from paper PMC9200688, “The production and biochemical characterization of α-carbonic anhydrase from Lactobacillus rhamnosus GG” (Applied Microbiology and Biotechnology, 2022).
pKi: −log10 of the molar value. “Also recorded” adds a separate entry of the source.

Molecular target: T1, α-carbonic anhydrase of L. rhamnosus (LrhCA) (Lacticaseibacillus rhamnosus, UniProt A0A809N5C7)
T1 sequence (A0A809N5C7 1-215): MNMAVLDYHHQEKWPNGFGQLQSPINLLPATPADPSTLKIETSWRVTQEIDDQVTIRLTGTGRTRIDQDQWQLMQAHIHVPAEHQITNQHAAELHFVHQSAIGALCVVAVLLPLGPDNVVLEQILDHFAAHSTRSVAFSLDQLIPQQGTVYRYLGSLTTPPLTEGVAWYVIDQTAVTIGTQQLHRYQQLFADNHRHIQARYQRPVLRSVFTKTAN
Assay: Sulfonamide inhibition of LrhCA, stopped-flow CO2 hydrase assay
Assay type: biochemical, Lactobacillus rhamnosus GG
Conditions: Ki LrhCA

Row | Compound | pKi
1 | NS(=O)(=O)c1ccc(S(=O)(=O)Nc2cccc3c(Cl)c[nH]c23)cc1 [IND, indisulam, reference compound] | < 5.00
2 | Nc1ccc(S(N)(=O)=O)cc1Cl [compound 8] | 5.05
3 | NS(=O)(=O)Cc1noc2ccccc12 [ZNS, reference compound] | 5.05
4 | NS(=O)(=O)c1ccc(N2CCCCS2(=O)=O)cc1 [SLT, reference compound] | 5.03
5 | Nc1cc(C(F)(F)F)c(S(N)(=O)=O)cc1S(N)(=O)=O [compound 11] | 5.12
6 | NS(=O)(=O)c1nnc(NS(=O)(=O)c2ccccc2)s1 [BZA, benzolamide, reference compound] | 6.41
7 | Nc1cc(Cl)c(S(N)(=O)=O)cc1S(N)(=O)=O [compound 12] | 5.10
8 | Cc1onc(-c2ccccc2)c1-c1ccc(S(N)(=O)=O)cc1 [VLX, valdecoxib, reference compound] | < 5.00
9 | Nc1nccc(Nc2ccc(S(N)(=O)=O)cc2)n1 [compound 19] | 5.36
10 | Nc1ccc(S(=O)(=O)Nc2nnc(S(N)(=O)=O)s2)cc1 | 6.50
11 | O=C1NS(=O)(=O)c2ccccc21 [SAC, saccharin, reference compound] | < 5.00
12 | Cc1ccc(S(N)(=O)=O)cc1 [compound 4] | 5.25
13 | NS(=O)(=O)c1ccc(C(=O)O)cc1 [compound 18] | 5.57
14 | Nc1nnc(S(N)(=O)=O)s1 [compound 13, 5-amino-1,3,4-thiadizole-2-sulfonamide] | 6.06
15 | CCN[C@H]1CN(CCCOC)S(=O)(=O)c2sc(S(N)(=O)=O)cc21 [BRZ, brinzolamide, reference compound] | 6.36
16 | CC1(C)O[C@@H]2[C@@H](CO[C@@]3(COS(N)(=O)=O)OC(C)(C)O[C@@H]23)O1 [TPM, topiramate, reference compound] | 6.29
17 | NS(=O)(=O)c1ccc(CO)cc1 [compound 16] | 5.22
18 | Nc1ccc(S(N)(=O)=O)cc1Br [compound 9, 3-bromo-4-amino-benzenesulfonamide] | < 5.00
19 | CC(=O)/N=c1/sc(S(N)(=O)=O)nn1C [MZA, methazolamide, reference compound] | 6.08

Same assay, conditions: stopped-flow CO2 hydrase assay; mean from three different assays, errors 5–10%; recombinant LrhCA; 15 min preincubation at room temperature; read-out: Ki LrhCA

Row | Compound | pKi
20 | NS(=O)(=O)c1ccc(CCNS(=O)(=O)c2ccc([N+](=O)[O-])cc2CO)cc1 | 6.42
21 | 4-(4-sulfanilyl-aminomethyl)-benzenesulfonamide [compound 23] | 6.31
22 | NS(=O)(=O)c1cccc(S(N)(=O)=O)c1 [compound 3] | 5.52
23 | NS(=O)(=O)c1cc2c(cc1Cl)NCNS2(=O)=O [HCT, hydrochlorothiazide, reference compound] | < 5.00
24 | NCc1ccc(S(N)(=O)=O)cc1 [compound 5, 4-aminomethyl-benzenesulfonamides] | < 5.00
25 | Nc1ccc(S(=O)(=O)Nc2ccc(S(N)(=O)=O)cc2)cc1 [compound 22] | 6.25
26 | NS(=O)(=O)c1cc(Cl)cc(Cl)c1O [compound 10] | 5.30
27 | 4-(2-hydroxymethyl-4-nitrophenyl-sulfonamido)ethylbenzenesulfonamide [compound 24] | 6.39

Molecular target: hCA I (human carbonic anhydrase isozyme I)
Assay: not given
Conditions: human recombinant isozyme; stopped-flow CO2 hydrase assay; data published previously, ref Supuran [2008]; cited from earlier work

Row | Compound | pKi
28 | NS(=O)(=O)c1cccc(S(N)(=O)=O)c1 [compound 3] | 7.10
29 | O=C1NS(=O)(=O)c2ccccc21 [SAC, saccharin, reference compound] | 4.73
30 | Cc1ccc(S(N)(=O)=O)cc1 [compound 4] | 4.11

System: L. rhamnosus GG
Assay: In vitro inhibition assay with acetazolamide: growth of L. rhamnosus GG culture (OD595)
Conditions: AAZ 1 nM to 10 mM in MRS, 37 °C, anaerobic and aerobic, 96 h, OD595 at 0, 24, 48, 72, 96 h

Row | Compound | Effect of acetazolamide on cell growth of L. rhamnosus GG (OD595)
31 | CC(=O)Nc1nnc(S(N)(=O)=O)s1 [AAZ, acetazolamide] | very little or no inhibitory effect on cell growth; also recorded: no significant effect on the growth

Same assay, conditions: AAZ 1 nM to 10 mM in MRS, 37 °C, anaerobic and aerobic, 96 h, OD595 at 0, 24, 48, 72, 96 h; listed as Acetazolamide

Row | Compound | Effect of acetazolamide on cell growth of L. rhamnosus GG (OD595)
32 | CC(=O)Nc1nnc(S(N)(=O)=O)s1 [AAZ, acetazolamide] | marginal inhibitory effect on cell growth

Same assay, conditions: AAZ 1 nM to 10 mM in MRS, 37 °C, anaerobic and aerobic, 96 h, OD595 at 0, 24, 48, 72, 96 h; listed as acetazolamide

Row | Compound | Effect of acetazolamide on cell growth of L. rhamnosus GG (OD595)
33 | CC(=O)Nc1nnc(S(N)(=O)=O)s1 [AAZ, acetazolamide] | no significant effect on cell growth
